Consider 35 compounds from patent publication US6906095B2, “Indolylalkylidenehydrazine-carboximidamide derivatives as 5-hydroxytryptamine-6 ligands” (Wyeth, priority 2002, dated 2005).

The target in this test is T1, human cloned 5-HT6 receptors (Homo sapiens, UniProt P50406).
T1 construct: expressed in transfected cells; host or cells: Hela cells
Kind of test: 5-HT6 binding affinity, [3H]-LSD displacement in membranes of Hela cells. The conditions noted are these: for inhibition at 0.1 µM: test compound dose 100 nM; for inhibition at 1 µM: read-out: % Inhibition.

Setting [1] is: test compound dose 1000 nM, [3H]-LSD 3.0 nM.

Structures are written as SMILES.

T1 sequence (P50406 whole entry): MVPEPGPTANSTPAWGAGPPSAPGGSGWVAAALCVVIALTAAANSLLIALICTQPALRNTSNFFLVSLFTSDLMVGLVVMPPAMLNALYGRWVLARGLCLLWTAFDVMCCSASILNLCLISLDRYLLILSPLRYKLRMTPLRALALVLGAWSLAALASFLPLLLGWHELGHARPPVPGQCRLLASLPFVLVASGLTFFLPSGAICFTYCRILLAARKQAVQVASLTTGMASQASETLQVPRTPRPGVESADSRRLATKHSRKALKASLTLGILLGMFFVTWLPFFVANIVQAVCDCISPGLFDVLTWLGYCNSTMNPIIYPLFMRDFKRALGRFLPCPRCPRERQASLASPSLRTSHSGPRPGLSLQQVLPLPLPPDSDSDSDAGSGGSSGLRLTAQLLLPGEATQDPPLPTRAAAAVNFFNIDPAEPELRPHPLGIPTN

Broadly, the inhibition is how much of the control response was suppressed. Take `CC(=NNC(=N)N)c1cn(C(=O)Oc2ccccc2)c2ccccc12` [Example 128, phenyl 3-(1-{2-[amino(imino)methyl]hydrazono}ethyl)-1H-indole-1-carboxylate]: testing at 0.1 µM ([3H]-LSD 3.0 nM) gave an inhibition of 23.9%.

Turning to `CC(=NNC(=N)N)c1cn(S(=O)(=O)c2ccc(-c3ccccc3)cc2)c2ccccc12` [Example 26, 2-{1-[1-([1,1′-biphenyl]-4-ylsulfonyl)-1H-indol-3-yl]ethylidene}hydrazinecarboximidamide], 0.1 µM produced 39.7% inhibition ([3H]-LSD 3.0 nM).

What is called Ki is a dissociation constant, usually derived from enzyme kinetics or from competition with a known ligand. In the case of `CCCCCNC(=N)NN=C(C)c1cn(S(=O)(=O)c2ccccc2)c2ccccc12` [Example 123, N-Pentyl-2-{1-[1-(phenylsulfonyl)-1H-indol-3-yl]ethylidene}-hydrazinecarboximidamide], the Ki came to 12 nM. The inhibition at 0.1 µM ([3H]-LSD 3.0 nM) is 34%.

Compound `CC(=NNC(=N)N)c1cn(S(C)(=O)=O)c2ccc(Cl)cc12` [Example 72, 2-{1-[5-chloro-1-(methylsulfonyl)-1H-indol-3-yl]ethylidene}hydrazinecarboximidamide] displayed an inhibition at 0.1 µM ([3H]-LSD 3.0 nM) of 75.1%.

On to `CCCCC(=NNC(=N)N)c1cn(S(=O)(=O)CCCC)c2ccc(Cl)cc12` [Example 76, 2-{1-[1-(butylsulfonyl)-5-chloro-1H-indol-3-yl]pentylidene}hydrazinecarboximidamide], for which, under setting [1], the inhibition at 1 µM was determined as 74.5%.

The compound `CC(=NNC(=N)N)c1cn(S(=O)(=O)c2cc(Br)c(Cl)s2)c2ccccc12` [Example 28, 2-(1-{1-[(4-bromo-5-chlorothien-2-yl)sulfonyl]-1H-indol-3-yl}ethylidene)hydrazinecarboximidamide] yielded an inhibition at 0.1 µM ([3H]-LSD 3.0 nM) of 58.3%.

As to `N=C(N)NN=C(c1cn(S(=O)(=O)c2ccc3ccccc3c2)c2ccccc12)C1CC1` [Example 66, 2-{cyclopropyl[1-(2-naphthylsulfonyl)-1H-indol-3-yl]methylidene}hydrazinecarboximidamide], testing at 0.01 µM (test compound dose 10 nM, [3H]-LSD 3.0 nM) gave an inhibition of 35.1%.

With `COc1ccc(S(=O)(=O)n2cc(C(C)=NNC(=N)N)c3ccc(F)cc32)cc1OC` [Example 115, 2-(1-{1-[(3,4-dimethoxyphenyl)sulfonyl]-6-fluoro-1H-indol-3-yl}ethylidene)hydrazinecarboximidamide], the inhibition at 1 µM under setting [1] came to 89.2%.

The % Inhibition is the relative decrease from the control value, in per cent. Lower therefore signals little suppression. On to `Cc1ccc(S(=O)(=O)n2cc(C=NNC(=N)N)c3ccccc32)cc1` [Example 3, 2-({1-[(4-methylphenyl)sulfonyl]-1H-indol-3-l}methylidene)hydrazinecarboximidamide], for which the “% Inhibition” value under setting [1] stood at 71.0%.

`COc1ccc(S(=O)(=O)n2cc(C(=NNC(=N)N)C3CC3)c3cc(Cl)ccc32)cc1` [Example 80, 2-[{5-chloro-1-[(4-methoxyphenyl)sulfonyl]-1H-indol-3-yl}(cyclopropyl)methylidene]hydrazinecarboximidamide] yielded an inhibition at 0.1 µM ([3H]-LSD 3.0 nM) of 74%.

As to `CC(=NNC(=N)N)c1cn(S(=O)(=O)c2ccc([N+](=O)[O-])cc2)c2ccccc12` [Example 52, 2-(1-{1-[(4-nitrophenyl)sulfonyl]-1H-indol-3-yl}ethylidene)hydrazinecarboximidamide], under “[3H]-LSD 3.0 nM”, the inhibition at 0.1 µM came to 28.2%.

The compound `CC(=NNC(=N)N)c1cn(S(=O)(=O)c2ccc(Br)cc2)c2ccccc12` [Example 30, 2-(1-{1-[(4-bromophenyl)sulfonyl]-1H-indol-3-yl}ethylidene)hydrazinecarboximidamide] returned an inhibition at 0.1 µM ([3H]-LSD 3.0 nM) of 65%.

Under “[3H]-LSD 3.0 nM”, `CC(=NNC(=N)N)c1cn(S(=O)(=O)c2ccc(-c3ccccn3)s2)c2ccccc12` [Example 53, 2-(1-{1-[(5-pyridin-2-ylthien-2-yl)sulfonyl]-1H-indol-3-yl}ethylidene)hydrazinecarboximidamide] gave an inhibition at 0.1 µM of 38.4%.

In the case of `CCCCC(=NNC(=N)N)c1cn(S(=O)(=O)CCCC)c2ccccc12` [Example 59, 2-{1-[1-(butylsulfonyl)-1H-indol-3-yl]pentylidene}hydrazinecarboximidamide], the inhibition at 1 µM under setting [1] turned out to be 77.7%.

Take `COc1ccc(S(=O)(=O)n2cc(C(=NNC(=N)N)C3CC3)c3ccccc32)cc1OC` [Example 71, 2-(cyclopropyl{1-[(3,4-dimethoxyphenyl)sulfonyl]-1H-indol-3-yl}methylidene)hydrazinecarboximidamide]: where the note is “[3H]-LSD 3.0 nM”, 0.1 µM produced 61.5% inhibition.

`CC(=NNC(=N)N)c1cn(S(=O)(=O)c2ccc(OC(F)(F)F)cc2)c2ccccc12` [Example 54, 2-[1-(1-{[4-(trifluoromethoxy)phenyl]sulfonyl}-1H-indol-3-yl)ethylidene]hydrazinecarboximidamide] registered an inhibition at 0.1 µM ([3H]-LSD 3.0 nM) of 26.2%.

In turn, `CCC(=NNC(=N)N)c1cn(S(=O)(=O)c2ccc(N)cc2)c2ccc(F)cc12` [Example 119, 2-(1-{1-[(4-aminophenyl)sulfonyl]-5-fluoro-1H-indol-3-yl}propylidene)hydrazinecarboximidamide] came in with a Ki of 2 nM.

Consider `COc1ccc(S(=O)(=O)n2cc(C(C)=NNC(=N)N)c3ccccc32)cc1` [Example 61, 2-(1-{1-[(4-methoxyphenyl)sulfonyl]-1H-indol-3-yl}ethylidene)hydrazinecarboximidamide], for which the inhibition at 1 µM under setting [1] was determined as 83.6%.

In the case of `CCCCC(=NNC(=N)N)c1cn(S(=O)(=O)c2ccc(OC)c(OC)c2)c2ccccc12` [Example 70, 2-(1-{1-[(3,4-dimethoxyphenyl)sulfonyl]-1H-indol-3-yl}pentylidene)hydrazinecarboximidamide], under setting [1], the inhibition at 1 µM turned out to be 89.8%.

Turning to `CC(=NNC(=N)N)c1cn(S(=O)(=O)c2cccc3nonc23)c2ccccc12` [Example 25], the Ki came to 15 nM. This compound also yielded an inhibition at 0.1 µM ([3H]-LSD 3.0 nM) of 79.6%.

In the case of `CCCCC(=NNC(=N)N)c1cn(S(=O)(=O)c2ccc(OC)c(OC)c2)c2cc(F)ccc12` [Example 116, 2-(1-{1-[(3,4-dimethoxyphenyl)sulfonyl]-6-fluoro-1H-indol-3-yl}pentylidene)hydrazinecarboximidamide], the inhibition at 1 µM under setting [1] was 73.5%.

Consider `CS(=O)(=O)n1cc(C(=NNC(=N)N)C2CC2)c2ccccc21` [Example 57, 2-{cyclopropyl[1-(methylsulfonyl)-1H-indol-3-yl]methylidene}hydrazinecarboximidamide], for which, under “[3H]-LSD 3.0 nM”, the inhibition at 0.1 µM is 40.4%.

With `CCCCC(=NNC(=N)N)c1cn(S(C)(=O)=O)c2ccccc12` [Example 56, 2-{1-[1-(methylsulfonyl)-1H-indol-3-yl]pentylidene}hydrazinecarboximidamide], under setting [1], the inhibition at 1 µM is 76.9%.

`CCCCS(=O)(=O)n1cc(C(=NNC(=N)N)C2CC2)c2ccccc21` [Example 60, 2-[[1-(butylsulfonyl)-1H-indol-3-yl](cyclopropyl)methylidene]hydrazinecarboximidamide] returned an inhibition at 0.1 µM ([3H]-LSD 3.0 nM) of 62.6%.

In the case of `CCCCC(=NNC(=N)N)c1cn(S(=O)(=O)c2ccc(OC)c(OC)c2)c2ccc(Cl)cc12` [Example 88, 2-(1-{5-chloro-1-[(3,4-dimethoxyphenyl)sulfonyl]-1H-indol-3-yl}pentylidene)hydrazinecarboximidamide], the inhibition at 1 µM under setting [1] turned out to be 65.6%.

Take `N=C(N)N/N=C(\C=C\c1ccccc1Cl)c1cn(S(=O)(=O)c2ccccc2)c2ccccc12` [Example 8, 2-{(E,2E)-3-(2-chlorophenyl)-1-[1-(phenylsulfonyl)-1H-indol-3-yl]prop-2-enylidene}-hydrazinecarboximidamide]: the inhibition at 1 µM under setting [1] amounted to 95.2%.

With `CC(=NNC(=N)NCCO)c1cn(S(=O)(=O)c2ccccc2)c2ccccc12` [Example 127, N-(2-hydroxyethyl)-2-{1-[1-(phenylsulfonyl)-1H-indol-3-yl]ethylidene}hydrazinecarboximidamide], under “[3H]-LSD 3.0 nM”, the inhibition at 0.1 µM was 83.3%.

The compound `CSc1nccc(-c2ccc(S(=O)(=O)n3cc(C(C)=NNC(=N)N)c4ccccc43)s2)n1` [Example 49, 2-{1-[1-({5-[2-(methylthio)pyrimidin-4-yl]thien-2-yl}sulfonyl)-1H-indol-3-yl]ethylidene}-hydrazinecarboximidamide] yielded an inhibition at 0.1 µM ([3H]-LSD 3.0 nM) of 33%.

In turn, `CCCCS(=O)(=O)n1cc(C(C)=NNC(=N)N)c2cc(Cl)ccc21` [Example 75, 2-{1-[1-(butylsulfonyl)-5-chloro-1H-indol-3-yl]ethylidene}hydrazinecarboximidamide] gave an inhibition at 0.1 µM ([3H]-LSD 3.0 nM) of 84.6%.

Take `N=C(N)NN=C(c1cn(S(=O)(=O)c2ccccc2)c2cc(F)ccc12)C1CC1` [Example 114, 2-{cyclopropyl[6-fluoro-1-(phenylsulfonyl)-1H-indol-3-yl]methylidene}hydrazinecarboximidamide]: where the note is “[3H]-LSD 3.0 nM”, the inhibition at 0.1 µM stood at 85.2%.

In turn, `CC(=NNC(=N)N)c1cn(S(=O)(=O)c2c(Cl)nc3sccn23)c2ccccc12` [Example 36, 2-(1-{1-[(6-chloroimidazo[2,1-b][1,3]thiazol-5-yl)sulfonyl]-1H-indol-3-yl}ethylidene)hydrazinecarboximidamide] displayed a Ki of 8 nM. Moreover, 0.1 µM produced 86.4% inhibition ([3H]-LSD 3.0 nM).

Where the note is “[3H]-LSD 3.0 nM”, `COc1ccc(S(=O)(=O)n2cc(C(=NNC(=N)N)C3CC3)c3cc(Cl)ccc32)cc1OC` [Example 89, 2-[{5-chloro-1-[(3,4-dimethoxyphenyl)sulfonyl]-1H-indol-3-yl}(cyclopropyl)-methylidene]hydrazinecarboximidamide] came in with an inhibition at 0.1 µM of 71.9%.

With `CCC(=NNC(=N)N)c1cn(S(=O)(=O)c2ccc3ccccc3c2)c2ccc(Cl)cc12` [Example 122, 2-{1-[5-chloro-1-(2-naphthylsulfonyl)-1H-indol-3-yl]propylidene}hydrazinecarboximidamide], the affinity corresponds to a Ki of 101 nM.

`CC(=NNC(=N)NCc1ccccc1)c1cn(S(=O)(=O)c2ccccc2)c2ccccc12` [Example 125, N-benzyl-2-{1-[1-(phenylsulfonyl)-1H-indol-3-yl]ethylidene}hydrazinecarboximidamide] registered an inhibition at 0.1 µM ([3H]-LSD 3.0 nM) of 39.1%.

In turn, `CC(=NNC(=N)N)c1cn(S(=O)(=O)c2ccccc2Br)c2ccccc12` [Example 31, 2-(1-{1-[(2-bromophenyl)sulfonyl]-1H-indol-3-yl}ethylidene)hydrazinecarboximidamide] had a Ki of 13 nM. Further, the inhibition at 0.1 µM ([3H]-LSD 3.0 nM) came out at 83.3%.
